Holding throughout (assay): ≥ marks a high value that may be exact or a test limit, other limits are often not marked, values filed in µg/mL are converted to µM
In assay [1] the test system is Pseudomonas aeruginosa 1.
The test system of assay [2] is Staphylococcus aureus.
Assay [3] relates to Enterococcus faecium ATCC 19434.
For assay [4], the system named is Trichosporon beigelii KCTC 7707.
In assay [5] the test system is Salmonella typhimurium ATCC 19430.
The subject of assay [6] is Staphylococcus aureus ATCC 25923.
The test system of assay [7] is Candida albicans ATCC 90028.
Assay [8] concerns Candida parapsilosis ATCC 22019.
The test system of assay [9] is Trichophyton rubrum KCTC 6345.
Assay [10] relates to Escherichia coli O157:H7 ATCC 43895.
In assay [11] the test system is Pseudomonas aeruginosa ATCC 27853.
For assay [12], the system named is Pseudomonas aeruginosa 2.
For assay [13], the system named is Enterococcus faecalis ATCC 29212.
For assay [14], the system named is Escherichia coli ATCC 32218.
Assay [15] deals with Staphylococcus aureus ATCC 29213.
The test system of assay [16] is Escherichia coli ATCC 25922.
The test system of assay [17] is Staphylococcus aureus ATCC 6538.
Assay [18] deals with Staphylococcus aureus P1374.
The test system of assay [19] is Staphylococcus aureus P1381.
For assay [20], the system named is Escherichia coli AB94012.
Assay [21] relates to Pseudomonas aeruginosa AB93066.
In assay [22] the test system is Staphylococcus aureus AB94004.
Assay [23] has as its system Pseudomonas aeruginosa ATCC 9027.
In assay [24] the test system is Candida albicans KCCM 11282.
For assay [25], the system named is Escherichia coli.
The subject of assay [26] is Edwardsiella tarda.
Assay [27] concerns Saccharomyces cerevisiae KCCM 11293.
Assay [28] relates to Vibrio tapetis KCTC 12728.
Assay [29] relates to Streptococcus iniae.
Assay [30] relates to Miamiensis avidus.
The subject of assay [31] is Trichophyton rubrum.
Assay [32] deals with Trichophyton mentagrophytes.
Assay [33] concerns Escherichia coli ATCC 8739.
For assay [34], the system named is Pseudomonas aeruginosa ATCC 15422.
Assay [35] has as its system Bacillus subtilis CCT 2576.

Converted amounts (≈) assume the structure as drawn.

One may read the MIC as the lowest concentration found to suppress growth.

As to `CC[C@H](C)[C@H](NC(=O)[C@H](CCCN=C(N)N)NC(=O)CNC(=O)[C@@H](NC(=O)[C@@H]1CCCN1C(=O)[C@H](Cc1ccccc1)NC(=O)[C@H](CCC(N)=O)NC(=O)[C@H](CC(C)C)NC(=O)CNC(=O)[C@H](C)N)C(C)C)C(=O)NCC(=O)N[C@@H](CCCN=C(N)N)C(=O)N[C@@H](CC(C)C)C(=O)N[C@@H](CC(C)C)C(=O)N[C@@H](CCCN=C(N)N)C(=O)N[C@@H](CCCCN)C(=O)O` [AGLQFPVGRIGRLLRK], the MIC in assay [1] was found to be 6.3 µM (≈ 11.2 µg/mL); in [2] it was 12.5 µM (≈ 22.3 µg/mL); in [3], 12.5 µM (≈ 22.3 µg/mL); in assay [4], 6.3 µM (≈ 11.2 µg/mL); in assay [5] it was 12.5 µM (≈ 22.3 µg/mL); in assay [6], 25 µM (≈ 44.5 µg/mL). Besides, the MIC in [7] turned out to be 6.3 µM (≈ 11.2 µg/mL); in assay [8] it was 12.5 µM (≈ 22.3 µg/mL); in [9], 6.3 µM (≈ 11.2 µg/mL); in assay [10], 6.3 µM (≈ 11.2 µg/mL); in assay [11] it was 12.5 µM (≈ 22.3 µg/mL); in [12], 12.5 µM (≈ 22.3 µg/mL).
For the compound `CC(C)C[C@H](NC(=O)[C@H](C)N)C(=O)N[C@@H](CCCCN)C(=O)N[C@@H](Cc1ccc(O)cc1)C(=O)N[C@@H](CCCN=C(N)N)C(=O)N[C@@H](CC(C)C)C(=O)N[C@@H](Cc1ccccc1)C(=O)N[C@@H](CCCCN)C(=O)N[C@@H](CCCCN)C(=O)N[C@@H](CC(C)C)C(=O)N[C@@H](CCCCN)C(=O)N[C@@H](CCCCN)C(=O)N[C@@H](Cc1ccccc1)C(=O)O` [ALKYRLFKKLKKF], the figures for the minimum inhibitory concentration (MIC) in [13], in [14] and in assay [15] were 1.19 µM (≈ 2 µg/mL), at least 35.6 µM and 0.594 µM (≈ 1 µg/mL), respectively.
`CC[C@H](C)[C@H](NC(=O)[C@H](CO)NC(=O)[C@H](CCCCN)NC(=O)[C@@H](NC(=O)CNC(=O)[C@H](CCCCN)NC(=O)[C@H](Cc1c[nH]c2ccccc12)NC(=O)[C@H](CC(C)C)NC(=O)[C@H](CCCCN)NC(=O)CNC(=O)[C@H](CC(C)C)NC(=O)[C@@H](NC(=O)[C@@H](N)Cc1ccccc1)[C@@H](C)CC)C(C)C)C(=O)N[C@@H](Cc1ccccc1)C(N)=O` [FILGKLWKGVKSIF]: the MIC in [16] was 30.6 µM (≈ 50 µg/mL); in [17], 3.82 µM (≈ 6.25 µg/mL); in assay [18] it was 7.64 µM (≈ 12.5 µg/mL); in assay [6], 3.82 µM (≈ 6.25 µg/mL); in [19], 7.64 µM (≈ 12.5 µg/mL); in assay [20] it was 15.3 µM (≈ 25 µg/mL). Also, the MIC in assay [21] is 30.6 µM (≈ 50 µg/mL); in assay [22], 3.82 µM (≈ 6.25 µg/mL); in [23], 30.6 µM (≈ 50 µg/mL).
Regarding `CC[C@H](C)[C@H](NC(=O)[C@H](C)NC(=O)[C@H](Cc1cnc[nH]1)NC(=O)CNC(=O)[C@@H](NC(=O)CNC(=O)[C@H](Cc1cnc[nH]1)NC(=O)[C@H](CC(C)C)NC(=O)[C@H](CC(C)C)NC(=O)[C@H](CCSC)NC(=O)CNC(=O)[C@H](CC(C)C)NC(=O)[C@@H](N)Cc1ccccc1)C(C)C)C(=O)N[C@@H](Cc1cnc[nH]1)C(=O)NCC(=O)N[C@@H](CC(C)C)C(=O)N[C@H](C(=O)N[C@@H](Cc1cnc[nH]1)C(=O)NCC(=O)N[C@@H](CCCCN)C(=O)N[C@@H](CCC(N)=O)C(=O)N[C@@H](CC(N)=O)C(=O)N[C@H](C(=O)N[C@@H](CCC(=O)O)C(=O)O)C(C)C)[C@@H](C)CC` [FLGMLLHGVGHAIHGLIHGKQNVE], the MIC was 22.5 µM (≈ 58 µg/mL) in assay [24]; 45 µM (≈ 116 µg/mL) in assay [25]; at least 90 µM in assay [26]; 11.2 µM (≈ 29 µg/mL) in assay [27]; 22.5 µM (≈ 58 µg/mL) in assay [28]; at least 45 µM in assay [29]. In addition, in assay [30], the MIC is 0.4 µM (≈ 1.03 µg/mL).
In the case of `CSCC[C@H](NC(=O)[C@H](CO)NC(=O)[C@H](C)NC(=O)[C@H](C)NC(=O)[C@H](C)NC(=O)[C@H](C)NC(=O)[C@H](C)NC(=O)[C@H](C)NC(=O)[C@H](C)NC(=O)[C@H](CC(N)=O)NC(=O)[C@H](C)NC(=O)[C@H](C)NC(=O)[C@@H](NC(=O)[C@H](CC(C)C)NC(=O)[C@H](C)NC(=O)[C@H](C)NC(=O)[C@H](C)NC(=O)[C@H](C)NC(=O)[C@H](C)NC(=O)[C@H](C)NC(=O)[C@H](CC(=O)O)NC(=O)[C@H](CO)NC(=O)[C@H](C)NC(=O)[C@@H](NC(=O)[C@@H](N)Cc1cnc[nH]1)[C@@H](C)O)[C@@H](C)O)C(=O)N[C@@H](C)C(=O)O` [HTASDAAAAAALTAANAAAAAAASMA], the MIC in assay [6] is above 115 µM; in assay [31] it was at least 115 µM; in assay [8], at least 115 µM; in assay [32] it was at least 115 µM; in [33], 30 µM (≈ 66.4 µg/mL).
In the case of `CC[C@H](C)[C@H](N)C(=O)N[C@@H](CC(N)=O)C(=O)N[C@@H](Cc1c[nH]c2ccccc12)C(=O)N[C@@H](CCCCN)C(=O)N[C@@H](CCCCN)C(=O)N[C@@H](CCSC)C(=O)N[C@@H](C)C(=O)N[C@@H](C)C(=O)N[C@H](C(=O)N[C@@H](C)C(=O)N[C@@H](CC(C)C)C(=O)N[C@@H](CCCCN)C(=O)N[C@@H](CCSC)C(=O)N[C@H](C(N)=O)[C@@H](C)CC)[C@@H](C)O` [INWKKMAATALKMI], the minimum inhibitory concentration (MIC) amounted to 2.41 µM (≈ 3.9 µg/mL) in assay [16], 1.79 µM (≈ 2.9 µg/mL) in assay [17], 9.64 µM (≈ 15.6 µg/mL) in assay [34] and 2.16 µM (≈ 3.5 µg/mL) in assay [35].
